# Measured values as given in patent publication US11596611B2, “Hepatitis B antiviral agents” (ENANTA PHARMACEUTICALS, INC., priority 2017, dated 2023).
# Experiments:
# HBV = assay: HepAD38 antiviral assay: reduction of viral product accumulation (virion DNA by qPCR, HBsAg or HBeAg by ELISA); format: cell-based, hepatitis B virus; details: Hepatitis B virus, 120 h; HepAD38 cells, five days after compound addition; 50% reduction of viral product vs no drug controls; read-out: HepAD38 EC50
# In short: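 Readouts were qPCR of lysed virion DNA plus ELISA for HBsAg or HBeAg, samples diluted into linear range. HepAD38 cells, washed free of tetracycline, received compound diluted 1:200 from DMSO for 5 days; 8-day variant refreshed media and compound on days 2 and 5.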
# [1] = Compound toxicity by ATPLite (total ATP levels); format: cell-based; details: human, three days after compound addition, 50% reduction of total ATP
# Procedure: Methods: HepAD38 cells are maintained as previously reported (Ladner et al, Antimicrob. Agents Chemother. 1997, […], 1715). Briefly, cells are passaged upon attaining confluency in DMEM/F12 media in the presence of 10% FBS, Penn/Strep, 250 μg/mL G418, and 1 ug/ml tetracycline. Novel compounds are screened by first washing cells three times with PBS to remove tetracycline, and plating in 96 well plates at 35,000 cells/well. Compounds dissolved in DMSO are then diluted 1:200 into wells containing cells. Five days after compound addition, material is harvested for analysis. For an extended 8 days analysis, cells are plated and treated as described above, but media and compound are refreshed on d2 and d5 post initial treatment.
# Compound toxicity is evaluated by seeding cells at 15,000 cells/well and treating with compound as described above.
Compound,EC50 (HBV),CC50 at 3 days ([1]; class symbols),CC50 at 3 days ([1]; numeric bounds)
"O=C(Nc1ccc(F)c(F)c1)c1ccc(Cl)c(S(=O)(=O)[C@H]2CC3CCC(C2)[C@]3(O)[C@H](O)c2ccccn2)c1 (single isomer, unassigned) [Example 284b]",< 104 nM,> 25000 nM,–
"O=C(Nc1ccc(F)c(F)c1)c1ccc(Cl)c(S(=O)(=O)[C@H]2CC3CCC(C2)[C@]3(O)[C@@H](O)c2cccnc2)c1 (single isomer, unassigned) [Example 285a]",< 104 nM,> 25000 nM,–
"O=C(Nc1ccc(F)c(F)c1)c1ccc(Cl)c(S(=O)(=O)[C@H]2CC3CCC(C2)[C@]3(O)[C@H](O)c2cccnc2)c1 (single isomer, unassigned) [Example 285b]",< 104 nM,> 25000 nM,–
CN1CCC[C@@H]1C(=O)NC[C@]1(O)C2CCC1C[C@@H](S(=O)(=O)c1cc(C(=O)Nc3cc(F)c(F)c(F)c3)ccc1Cl)C2 [Example 1],< 104 nM,–,> 3000 nM
O=C(Nc1cc(F)c(F)c(F)c1)c1ccc(Cl)c(S(=O)(=O)[C@H]2C3CC[C@H]2C[C@](O)(CCCO)C3)c1 [Example 9],< 104 nM,–,> 6250 nM
C/C=C/C(=O)NC[C@]1(O)C2CCC1C[C@@H](S(=O)(=O)c1cc(C(=O)Nc3cc(F)c(F)c(F)c3)ccc1Cl)C2 [Example 12],< 104 nM,–,> 3000 nM
C[C@H](O)C(=O)NC[C@]1(O)C2CCC1C[C@@H](S(=O)(=O)c1cc(C(=O)Nc3cc(F)c(F)c(F)c3)ccc1Cl)C2 [Example 13],< 104 nM,–,> 6250 nM
C[C@@H](O)[C@H](O)COC[C@]1(O)C2CCC1C[C@@H](S(=O)(=O)c1cc(C(=O)Nc3cc(F)c(F)c(F)c3)ccc1Cl)C2 [Example 36],< 104 nM,> 25000 nM,–
C=CCS(=O)(=O)NC[C@]1(O)C2CCC1C[C@@H](S(=O)(=O)c1cc(C(=O)Nc3cc(F)c(F)c(F)c3)ccc1Cl)C2 [Example 39],< 104 nM,–,> 6250 nM
O=C(NC[C@@]1(O)C2CC[C@H]1C[C@H](S(=O)(=O)c1cc(C(=O)Nc3cc(F)c(F)c(F)c3)ccc1Cl)C2)C1=CCCC1 [Example 41],< 104 nM,–,> 6250 nM
CC(C)=CCNC(=O)C[C@]1(O)C2CCC1C[C@@H](S(=O)(=O)c1cc(C(=O)Nc3cc(F)c(F)c(F)c3)ccc1Cl)C2 [Example 52],< 104 nM,> 25000 nM,–
CC=CCNC(=O)C[C@]1(O)C2CCC1C[C@@H](S(=O)(=O)c1cc(C(=O)Nc3cc(F)c(F)c(F)c3)ccc1Cl)C2 [Example 53],< 104 nM,–,> 6250 nM
CC(O)CNC(=O)C[C@]1(O)C2CCC1C[C@@H](S(=O)(=O)c1cc(C(=O)Nc3cc(F)c(F)c(F)c3)ccc1Cl)C2 (stereo partly drawn) [Example 54],< 104 nM,> 25000 nM,–
CC(CO)NC(=O)C[C@]1(O)C2CCC1C[C@@H](S(=O)(=O)c1cc(C(=O)Nc3cc(F)c(F)c(F)c3)ccc1Cl)C2 (stereo partly drawn) [Example 55],< 104 nM,> 25000 nM,–
C=CCNC(=O)C[C@]1(O)C2CCC1C[C@@H](S(=O)(=O)c1cc(C(=O)Nc3cc(F)c(F)c(F)c3)ccc1Cl)C2 [Example 58],< 104 nM,–,> 12500 nM
O=C(Nc1cc(F)c(F)c(F)c1)c1ccc(Cl)c(S(=O)(=O)[C@H]2CC3CCC(C2)[C@]3(O)COC(CCO)CCO)c1 [Example 61],< 104 nM,–,> 6250 nM
O=C(Nc1cc(F)c(F)c(F)c1)c1ccc(Cl)c(S(=O)(=O)[C@H]2CC3CCC(C2)[C@]3(O)COCCO)c1 [Example 62],< 104 nM,–,> 12500 nM
C=C1CC1C(=O)NC[C@@]1(O)C2CC[C@H]1C[C@H](S(=O)(=O)c1cc(C(=O)Nc3cc(F)c(F)c(F)c3)ccc1Cl)C2 (stereo partly drawn) [Example 66],< 104 nM,10000 to 25000 nM,–
CC(C)OC(=O)N[C@@H](C)C(=O)NC[C@]1(O)C2CCC1C[C@@H](S(=O)(=O)c1cc(C(=O)Nc3cc(F)c(F)c(F)c3)ccc1Cl)C2 [Example 70],< 104 nM,> 25000 nM,–
CC(C)(O)CNC(=O)C[C@]1(O)C2CCC1C[C@@H](S(=O)(=O)c1cc(C(=O)Nc3cc(F)c(F)c(F)c3)ccc1Cl)C2 [Example 71],< 104 nM,–,> 3000 nM
O=C(C[C@]1(O)C2CCC1C[C@@H](S(=O)(=O)c1cc(C(=O)Nc3cc(F)c(F)c(F)c3)ccc1Cl)C2)N[C@H]1CCOC1 [Example 72],< 104 nM,–,> 3000 nM
O=C(C[C@]1(O)C2CCC1C[C@@H](S(=O)(=O)c1cc(C(=O)Nc3cc(F)c(F)c(F)c3)ccc1Cl)C2)N[C@@H]1CCOC1 [Example 73],< 104 nM,–,> 6250 nM
O=C(Nc1cc(F)c(F)c(F)c1)c1ccc(Cl)c(S(=O)(=O)[C@H]2CC3CCC(C2)[C@]3(O)CNC(=O)c2ncco2)c1 [Example 88],< 104 nM,–,> 6250 nM

Compound,EC50 (HBV),CC50 at 3 days ([1]; class symbols),CC50 at 3 days ([1]; numeric bounds)
O=C(Nc1cc(F)c(F)c(F)c1)c1ccc(Cl)c(S(=O)(=O)[C@H]2CC3CCC(C2)[C@]3(O)CNC(=O)C2CCOCC2)c1 [Example 89],< 104 nM,–,> 6250 nM
O=C(Nc1cc(F)c(F)c(F)c1)c1ccc(Cl)c(S(=O)(=O)[C@H]2CC3CCC(C2)[C@]3(O)CNC(=O)C2CCCOC2)c1 (stereo partly drawn) [Example 90],< 104 nM,–,> 6250 nM
O=C(Nc1cc(F)c(F)c(F)c1)c1ccc(Cl)c(S(=O)(=O)[C@H]2CC3CCC(C2)[C@]3(O)CNC(=O)C2CCCCO2)c1 (stereo partly drawn) [Example 91],< 104 nM,10000 to 25000 nM,–
O=C(Nc1cc(F)c(F)c(F)c1)c1ccc(Cl)c(S(=O)(=O)[C@H]2CC3CCC(C2)[C@]3(O)CC(=O)N2CC(O)C2)c1 [Example 92],< 104 nM,–,> 6250 nM
CC(C)(O)C1CN(C(=O)C[C@]2(O)C3CCC2C[C@@H](S(=O)(=O)c2cc(C(=O)Nc4cc(F)c(F)c(F)c4)ccc2Cl)C3)C1 [Example 93],< 104 nM,–,> 6250 nM
O=C(C[C@]1(O)C2CCC1C[C@@H](S(=O)(=O)c1cc(C(=O)Nc3cc(F)c(F)c(F)c3)ccc1Cl)C2)N[C@H]1C[C@H](O)C1 [Example 111],< 104 nM,–,> 3000 nM
C[C@H](O)CNC(=O)C[C@]1(O)C2CCC1C[C@@H](S(=O)(=O)c1cc(C(=O)Nc3cc(F)c(F)c(F)c3)ccc1Cl)C2 [Example 112],< 104 nM,–,> 6250 nM
C[C@@H](O)CNC(=O)C[C@]1(O)C2CCC1C[C@@H](S(=O)(=O)c1cc(C(=O)Nc3cc(F)c(F)c(F)c3)ccc1Cl)C2 [Example 113],< 104 nM,–,> 6250 nM
COCCNC(=O)C[C@]1(O)C2CCC1C[C@@H](S(=O)(=O)c1cc(C(=O)Nc3cc(F)c(F)c(F)c3)ccc1Cl)C2 [Example 114],< 104 nM,–,> 6250 nM
COCC1(NC(=O)C[C@]2(O)C3CCC2C[C@@H](S(=O)(=O)c2cc(C(=O)Nc4cc(F)c(F)c(F)c4)ccc2Cl)C3)CC1 [Example 116],< 104 nM,–,> 3000 nM
O=C(C[C@]1(O)C2CCC1C[C@@H](S(=O)(=O)c1cc(C(=O)Nc3cc(F)c(F)c(F)c3)ccc1Cl)C2)NC1(CO)CC1 [Example 117],< 104 nM,–,> 6250 nM
COC[C@@H](O)COC[C@]1(O)C2CCC1C[C@@H](S(=O)(=O)c1cc(C(=O)Nc3cc(F)c(F)c(F)c3)ccc1Cl)C2 [Example 122],< 104 nM,> 25000 nM,–
CC(=O)N(C[C@H](C)O)C[C@]1(O)C2CCC1C[C@@H](S(=O)(=O)c1cc(C(=O)Nc3cc(F)c(F)c(F)c3)ccc1Cl)C2 [Example 125],< 104 nM,–,> 6250 nM
CC(=O)N(C[C@@H](C)O)C[C@]1(O)C2CCC1C[C@@H](S(=O)(=O)c1cc(C(=O)Nc3cc(F)c(F)c(F)c3)ccc1Cl)C2 [Example 126],< 104 nM,–,> 6250 nM
C[C@H](O)CNC(=O)C[C@]1(O)C2CCC1C[C@@H](S(=O)(=O)c1cc(C(=O)Nc3ccc(F)c(C(F)F)c3)ccc1Cl)C2 [Example 129],< 104 nM,> 25000 nM,–
C[C@H](O)COC[C@]1(O)C2CCC1C[C@@H](S(=O)(=O)c1cc(C(=O)Nc3cc(F)c(F)c(F)c3)ccc1Cl)C2 [Example 131],< 104 nM,–,> 12500 nM
C=CCc1cc(Cl)c(S(=O)(=O)[C@H]2CC3CCC(C2)[C@@]3(C)O)cc1C(=O)Nc1ccc(F)c(F)c1 [Example 135],< 104 nM,< 10000 nM,–
O=C(Nc1ccc(F)c(C(F)F)c1)c1ccc(Cl)c(S(=O)(=O)[C@H]2CC3CCC(C2)[C@]3(O)CO)c1 [Example 151],< 104 nM,> 25000 nM,–
CC(C)(C)OC(=O)N[C@@H](Cc1ccccc1)C(=O)N1C2CCC1CC(S(=O)(=O)c1cc(C(=O)Nc3cc(F)c(F)c(F)c3)ccc1Cl)C2 (stereo partly drawn) [Example 152],> 200 nM,> 25000 nM,–
C[C@@H](O)CNC(=O)C[C@]1(O)C2CCC1C[C@@H](S(=O)(=O)c1cc(C(=O)Nc3ccc(F)c(C(F)F)c3)ccc1Cl)C2 [Example 155],< 104 nM,> 25000 nM,–
O=C(Nc1ccc(F)c(F)c1)c1ccc(Cl)c(S(=O)(=O)[C@H]2CC3CCC(C2)[C@]3(O)CNC(=O)c2ncco2)c1 [Example 167],< 104 nM,–,> 12500 nM
O=C(Nc1ccc(F)c(F)c1)c1ccc(Cl)c(S(=O)(=O)[C@H]2CC3CCC(C2)[C@]3(O)CNC(=O)c2nccs2)c1 [Example 168],< 104 nM,10000 to 25000 nM,–
